Patent US20250338846A1, “COMPOSITIONS HAVING PESTICIDAL UTILITY AND PROCESSES RELATED THERETO” (CORTEVA AGRISCIENCE, LLC, priority 2022, published 2025)

Tests used:
[1] = tested on: Diamondback Moth (Plutella xylostella, PLUTMA); assay: Bioassay 6: Diamondback Moth, artificial lepidopteran diet, live larvae after 5 days; type: in vivo; details: DBM; F1 alone 0.4 % w/v
Procedure: where X=No. of live nymphs on solvent check and Y=No. of live nymphs on treated bean segments. In Table B5 the “Expected % Control” was calculated using the method described in Colby S. R., Weeds, 1967, 15, 20-22. Bioassay 6: Beet Armyworm (Spodoptera exigua, LAPHEG) (BAW), and Diamondback Moth (Plutella xylostella, PLUTMA) (DBM).
Stock solutions were prepared with Formula One as well as for each of the active ingredients individually. Test solutions were prepared from the stock solutions. Test solutions were prepared containing Formula One, the individual active ingredients, and mixtures of Formula One with each of the active ingredients. The test solution for Formula One was prepared by adding 500 μL of the stock solution to a 25 mL glass vial, then adding 500 μL of a 9:1 mixture of acetone: water. The individual active ingredients were prepared by adding 500 μL of stock solution to a 25 mL glass vial, then adding 500 μL of a 9:1 mixture of acetone: water. The test solutions containing mixtures of Formula One and the individual active ingredients were prepared by adding 500 μL of the active ingredient stock solution to a 25 mL glass vial, followed by 500 μL of the Formula One stock solution, creating a test solution containing 4000 ppm Formula One and 0.4% (w/v) of the active ingredient. Each test solution was serially diluted to create desired doses of test solutions (0.4% (w/v), 0.04% (w/v), 0.004% (w/v), 0.0004% (w/v), 0.00004% (w/v), and 0.000004% (w/v)). In test solutions containing mixtures of Formula One and the active ingredients, the active ingredients were diluted as described above, but the Concentration of Formula One was held constant (0.4% (w/v)). The highest dose test solution (0.4% (w/v)) was discarded, leaving 5 test solution concentrations used in the test.
The test solutions were tested against BAW and DBM using the following procedure: An artificial lepidopteran diet (Multispecies Lepidopteran Diet, Southland Products) was distributed in 128-cell bioassay trays (Frontier Agricultural Sciences™). 50 μL of test solution was pipetted into a cell in the bioassay tray. (The test solution doses of 0.04% (w/v), 0.004% (w/v), 0.0004% (w/v), 0.00004% (w/v), and 0.000004% (w/v) translated to concentrations of 5, 0.5, 0.05, 0.005, and 0.0005 ug/cm^2 on the diet, respectively.) A reference treatment (solvent check) was treated with the diluent only. […] After 5 days, the number of live larvae were recorded from each cell and percent control was measured using Abbott's correction formula (W. S. Abbott, J. Econ. Entomol. 18 (1925), pp. 265-267) as follows:
where X=No. of live larvae on solvent check and Y=No. of live larvae on treated diet. In Table B6 the “Expected % Control” was calculated using the method described in Colby S. R., Weeds, 1967, 15, 20-22. […]

[2] = tested on: Sweet Potato Whitefly (Bemisia tabaci, BEMITA); assay: Bioassay 8: Sweet Potato Whitefly, spray on cotton seedlings at crawler emergence, nymphs counted 7-9 days after treatment; type: in vivo; details: F1 alone 0.8 (10^-5) Wt %

CCN(C(=O)CCS(C)(=O)=O)c1sc(-c2cccnc2)nc1Cl [Formula F1, N-(4-chloro-2-(pyridin-3-yl)thiazol-5-yl)-N-ethyl-3-(methylsulfonyl)propanamide]
Average % Control F1 [1]: 0%
Average % Control F1 [2]: 74.86%
